Source: patent US10858365B2, “Triazolo-pyrimidine compounds and uses thereof” (Dizal (Jiangsu) Pharmaceutical Co., Ltd., priority 2018, dated 2020)
Read-outs that look alike come from different tables or passages of the source.

What was measured:
Format in all cases: cell-based
mA2a = mA2a (Mus musculus (Mouse), UniProt Q60613); experiment: cAMP inhibition assay in mA2a/CHO cells; conditions: adenosine stimulation, read-out: cAMP & FLIPR IC50 (nM) mA2a
Protocol: (§1) hA2a/CHO, hA2b/CHO and mA2a/CHO (Genscript) were plated at 5×10^3 cells/well into 384-well polystyrene plates at the day of experiment. Compounds were pre-incubated with cells for 30 min at 37° C., 5% CO2. Then […] adenosine was added to the cells and incubated for 30 min at 37° C., 5% CO2. Detection reagent (CISBIO) was added and the plates were incubated for 60 min at room temperature. The signal was captured by Envision.

hA2a = hA2a (Homo sapiens (Human), UniProt P29274); experiment: cAMP inhibition assay in hA2a/CHO cells; conditions: adenosine stimulation, read-out: cAMP & FLIPR IC50 (nM) hA2a
Chain of hA2a (P29274 whole entry): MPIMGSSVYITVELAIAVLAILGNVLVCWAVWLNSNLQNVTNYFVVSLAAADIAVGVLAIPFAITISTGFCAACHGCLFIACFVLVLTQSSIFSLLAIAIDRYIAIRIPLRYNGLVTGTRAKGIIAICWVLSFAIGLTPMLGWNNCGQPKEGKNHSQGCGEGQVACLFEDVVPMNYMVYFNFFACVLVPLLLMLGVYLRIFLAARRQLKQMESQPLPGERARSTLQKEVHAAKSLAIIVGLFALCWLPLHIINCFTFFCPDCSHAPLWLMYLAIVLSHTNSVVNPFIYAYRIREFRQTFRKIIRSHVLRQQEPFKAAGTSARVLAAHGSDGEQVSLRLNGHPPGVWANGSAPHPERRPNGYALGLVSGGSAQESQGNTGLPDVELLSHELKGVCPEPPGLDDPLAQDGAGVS
Protocol: as §1
FLIPR™ and cAMP inhibition activities of exemplary compounds in different adenosine receptor over-expressing cell lines are shown in Table 4 below.

hA1 = hA1 (Homo sapiens (Human), UniProt P30542); experiment: FLIPR inhibition assay in hADORA1/CHO (hA1 expressing) cells; conditions: FLIPR calcium, adenosine stimulation
Chain of hA1 (P30542 whole entry): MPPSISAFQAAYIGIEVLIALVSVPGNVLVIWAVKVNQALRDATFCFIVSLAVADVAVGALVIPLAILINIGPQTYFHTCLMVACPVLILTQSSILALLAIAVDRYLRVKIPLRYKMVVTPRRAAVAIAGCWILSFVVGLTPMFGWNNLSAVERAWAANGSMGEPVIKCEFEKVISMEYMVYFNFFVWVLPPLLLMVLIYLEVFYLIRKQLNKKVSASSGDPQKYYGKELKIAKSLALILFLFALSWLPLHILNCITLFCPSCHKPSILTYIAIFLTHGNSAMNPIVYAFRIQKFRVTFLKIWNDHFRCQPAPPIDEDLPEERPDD
Protocol: hADORA1/CHO (hA1 expressing) cells (Genscript) were plated at 1×10^4 cells/well into 384-well polystyrene plates one day before starting the experiment. On the day of experiment, the supernatant was discard and replaced with 40 µL of dye (FLIPR calcium 5 Assay Kit) per well and the plates were incubated for 60 mins at 37° C. plus 5% CO2. Then testing compounds were added at different concentrations for FLIPR™ inhibition assay. After a 400 s incubation with compound, […] adenosine was added into the cells, and the signal was captured by FLIPR.

hA2b = hA2b (Homo sapiens (Human), UniProt P29275); experiment: cAMP inhibition assay in hA2b/CHO cells; conditions: adenosine stimulation, read-out: cAMP & FLIPR IC50 (nM) hA2b
Chain of hA2b (P29275 whole entry): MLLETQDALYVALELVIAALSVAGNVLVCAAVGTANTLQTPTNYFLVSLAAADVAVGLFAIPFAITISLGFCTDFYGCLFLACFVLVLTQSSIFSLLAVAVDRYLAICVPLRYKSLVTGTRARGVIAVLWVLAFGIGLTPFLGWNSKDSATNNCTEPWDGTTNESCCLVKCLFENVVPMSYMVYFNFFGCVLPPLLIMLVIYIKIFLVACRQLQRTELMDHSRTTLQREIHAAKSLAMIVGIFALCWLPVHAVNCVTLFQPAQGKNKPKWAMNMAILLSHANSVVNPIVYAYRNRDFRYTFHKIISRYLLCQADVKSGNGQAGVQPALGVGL
Protocol: as §1

[1] = hADORA1/CHO cells, read-out: cAMP & FLIPR IC50 (nM) hA1

Chain of mA2a (Q60613 whole entry): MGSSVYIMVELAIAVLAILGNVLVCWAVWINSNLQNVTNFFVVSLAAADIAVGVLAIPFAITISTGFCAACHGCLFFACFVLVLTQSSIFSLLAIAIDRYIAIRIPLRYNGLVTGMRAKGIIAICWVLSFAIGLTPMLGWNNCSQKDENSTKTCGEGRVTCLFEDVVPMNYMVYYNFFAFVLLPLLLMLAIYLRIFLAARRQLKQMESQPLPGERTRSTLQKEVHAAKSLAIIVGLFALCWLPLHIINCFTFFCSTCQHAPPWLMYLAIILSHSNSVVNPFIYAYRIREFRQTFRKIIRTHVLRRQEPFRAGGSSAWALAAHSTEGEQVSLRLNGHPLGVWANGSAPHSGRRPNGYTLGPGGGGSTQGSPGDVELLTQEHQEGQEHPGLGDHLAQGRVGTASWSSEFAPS

Compound | IC50 (mA2a) [nM] | IC50 (hA2a) [nM] | IC50 (hA1; cAMP & FLIPR IC50 (nM) hA1, hADORA1/CHO cells) [nM] | IC50 (hA2b) [nM] | IC50 (hA1; [1]) [nM]
Nc1nc(-c2ccc(F)cc2)c(-c2ccc3nccn3c2)c2nc(Cc3ncccc3OC(F)F)nn12 [Example 73] | 0.4 | 0.1 | 11 | 4.8 | –
Cn1cc(-c2nc(N)n3nc(Cc4ncccc4F)nc3c2-c2ccc(=O)n(C)c2)cn1 [Example 59, 5-(5-amino-2-((3-fluoropyridin-2-yl)methyl)-7-(1-methyl-1H-pyrazol-4-yl)-[1,2,4]triazolo[1,5-c]pyrirridin-8-yl)-l-methylpyridin-2(1H)-one] | 179 | 98 | – | 1550 | 37
Cc1cc(-c2c(-c3ncco3)nc(N)n3nc(Cc4ncccc4F)nc23)cc(OC(F)F)n1 [Example 87] | 90 | 27 | – | 5800 | 4050
Nc1nc(-c2ccc(F)cc2)c(-c2ccc(=O)n(CCO)c2)c2nc(Cc3ncccc3F)nn12 [Example 95, 5-(5-amino-7-(4-fluorophenyl)-2-((3-fluoropyridin-2-yl)methyl)-[1,2,4]triazolo[1,5-c]pyrimidin-8-yl)-l-(2-hydroxyethyl)pyridin-2(1H)-one] | 8.9 | 3.7 | – | 241 | 27
Nc1nc(-c2ccc(F)cc2)c(-c2ccc(=O)n(C3CS(=O)(=O)C3)c2)c2nc(Cc3c(F)cccc3F)nn12 [Example 60, 5-(5-amino-2-(2,6-difluorobenzyl)-7-(4-fluorophenyl)-[1,2,4]triazolo[1,5-c]pyrimidin-8-yl)-1-(1,1-dioxidothietan-3-yl)pyridin-2(1H)-one] | 16 | 56 | – | 3300 | 40
Cc1cnc2ccc(-c3c(-c4ccc(F)cc4)nc(N)n4nc(CCN(C)C)nc34)cn12 [Example 120, 2-(2-(dimethylamino)ethyl)-7-(4-fluorophenyl)-8-(3-methylimidazo[l,2-a]pyridin-6-yl)-[l,2,4]tria zolo[1,5-c]pyrimidin-5-amine] | 9.5 | 0.6 | – | 146 | 66.7
Cc1cc(-c2c(-c3ncco3)nc(N)n3nc(Cc4c(F)cccc4F)nc23)cc(N)n1 [Example 81, 8-(2-amino-6-methylpyridin-4-yl)-2-(2,6-difluor obenzyl)-7-(oxazol-2-yl)-[1,2,4]triazolo[1,5-c] pyrimidin-5-amine] | 164 | 49 | – | 9090 | 5320
Cn1cc(-c2c(-c3cc(F)cc(F)c3)nc(N)n3nc(Cc4ncccc4F)nc23)ccc1=O [Example 76, 5-(5-amino-7-(3,5-difliiorophenyl)-2-((3-fluoropyridin-2-yl)methyl)-[1,2,4]triazolo[1,5-c]pyrimidin-8-yl)-1-methylpyridin-2(1H)-one] | 19 | 7.9 | – | 253 | 8.8
Cn1nc(-c2c(-c3ccc(F)cc3)nc(N)n3nc(Cc4ncccc4F)nc23)ccc1=O [Example 30, 6-(5-amino-7-(4-fluorophenyl)-2-((3-fluoropyridin-2-yl)methyl)-[1,2,4]triazolo[1,5-f]pyrimidin-8-yl)-2-methylpyridazin-3(2H)-one] | 25 | 5.9 | – | 160 | 16
Cn1cnc2ccc(-c3c(-c4ccc(F)cc4)nc(N)n4nc(Cc5ncccc5F)nc34)cc21 [Example 69, 7-(4-fluorophenyl)-2-((3-fluoropyridin-2-yl)methyl)-8-(1-methyl-1H-benzo[d]imidazol-6-yl)-[1,2, 4]triazolo[l,5-c]pyrimidin-5-amine] | 0.3 | 0.1 | – | 4.69 | 22
Cn1cc(-c2c(-c3ccc(Cl)cc3)nc(N)n3nc(Cc4ncccc4F)nc23)ccc1=O [Example 56, 5-(5-amino-7-(4-chlorophenyl)-2-((3-fluoropyridin-2-yl)methyl)-[1,2,4]triazolo[1,5-c]pyrimidin-8-yl)-l-methylpyridin-2(1H)-one] | 36 | 22 | – | 142 | 34
Cn1cnc2ccc(-c3c(-c4ncco4)nc(N)n4nc(Cc5c(F)cccc5F)nc34)cc21 [Example 91, 2-(2,6-difluorobenzyl)-8-(1-methyl-1H-benzo[d]imidazol-6-yl)-7-(oxazol-2-yl)-[1,2,4]triazolo[1,5-c]pyrimidin-5-amine] | 5.1 | 2.6 | – | 102 | 206
CN1CCC[C@@H]1Cc1nc2c(-c3ccc4ncn(C)c4c3)c(-c3ccc(F)cc3)nc(N)n2n1 [Example 104, (R)-7-(4-fluorophenyl)-8-(1-methyl-1H-benzo[d]imidazol-6-yl)-2-((1-methylpyrrolidin-2-yl)methyl)-[1,2,4]triazolo[1,5-c]pyrimidin-5-amine] | 5.7 | 1 | – | – | 34.1
Cn1cc(-c2c(-n3cccn3)nc(N)n3nc(Cc4ncccc4F)nc23)ccc1=O [Example 63, 5-[5-amino-2-[(3-fluoropyridin-2-yl)methyl]-7-(1H-pyrazol-1-yl)-[1,2,4]triazolo[1,5-c]pyrimidin-8-yl]-1-methyl-1,2-dihydropyridin-2-one] | 125 | 122 | – | 1560 | 250
Cn1cc(-c2c(Cl)nc(N)n3nc(Cc4c(F)cccc4F)nc23)ccc1=O [Example 28, 5-(5-amino-7-chloro-2-(2,6-difluorobenzyl)-[1,2,4]triazolo[1,5-c]pyrimidin-8-yl)-1-methylpyridin-2(1H)-one] | 217 | 158 | – | 6420 | 1150
Cc1cnc2ccc(-c3c(-n4cc(F)cn4)nc(N)n4nc(Cc5ncccc5F)nc34)cn12 [Example 117, 7-(4-fluoro-1H-pyrazol-1-yl)-2-((3-fluoropyridin-2-yl)methyl)-8-(3-methylimidazo[l,2-a]pyridin-6-yl)-[1,2,4]triazolo[1,5-c]pyrimidin-5-amine] | 0.5 | 0.2 | – | 16.4 | 9.7
COc1cc(-c2c(-c3ccc(F)cc3)nc(N)n3nc(Cc4c(F)cccc4F)nc23)ccn1 [Example 5, 2-(2,6-difluorobenzyl)-7-(4-fluorophenyl)-8-(2-methoxypyridin-4-yl)-[1,2,4]lriazolo[1,5-c] pyrimidin-5-amine] | 1.5 | 1.9 | – | – | –
Cc1cnc2ccc(-c3c(-c4ncco4)nc(N)n4nc(CC5CCOC5)nc34)cn12 (single isomer, unassigned) [Example 107-2, 8-(3-methylimidazo[1,2-a]pyridin-6-yl)-7-(oxazol-2-yl)-2-((tetrahydrofuran-3-yl)methyl)-[1,2,4]triazolo[1,5-f]pyrimidin-5-amine] | 27.7 | 0.5 | – | 473 | 34.5
Cn1cc(-c2c(-c3ncco3)nc(N)n3nc(Cc4ncccc4OC(F)F)nc23)ccc1=O [Example 71, 5-(5-amino-2-[[3-(difluoromethoxy)pyridin-2-yl]methyl]-7-(1,3-oxazol-2-yl)-[1,2,4]triazolo[1,5-c]pyrimidin-8-yl)-1-methyl-1,2-dihydropyridin-2-one] | – | 11 | – | 102 | 8.9
CN1CCC[C@H]1Cc1nc2c(-c3ccc4ncn(C)c4c3)c(-c3ccc(F)cc3)nc(N)n2n1 [Example 103, (S)-7-(4-fluorophenyl)-8-(1-methyl-1H-benzo[d]imidazol-6-yl)-2-((1-methylpyrrolidin-2-yl)methyl)-[1,2,4]triazolo[1,5-c]pyrimidin-5-amine] | 30.3 | 8.3 | – | – | 264
Cc1cnc2ccc(-c3c(N4CCC4)nc(N)n4nc(Cc5ncccc5F)nc34)cn12 [Example 119, 7-(azetidin-l-yl)-2-((3-fluoropyridin-2-yl)methyl)-8-(3-methylimidazo[1,2-a]pyridin-6-yl)-[1,2,4] triazolo[1,5-c]pyrimidin-5-amine] | – | 1.9 | – | – | 48.6
Cc1cnc2ccc(-c3c(N4CCOC(C)C4)nc(N)n4nc(Cc5ncccc5F)nc34)cn12 (single isomer, unassigned; isomer 1) [Example 112-1, 2-((3-fluoropyridin-2-yl)methyl)-8-(3-methylimidazo[l,2-a]pyridin-6-yl)-7-(2-methylmorpholino)-[1,2,4]triazolo[1,5-c]pyrimidin-5-amine (isomer 1)] | – | 91.6 | – | – | 966
Cc1cnc2ccc(-c3c(-c4ccc(F)cc4)nc(N)n4nc(CC5CCOC5)nc34)cn12 (single isomer, unassigned; isomer 2) [Example 105-2, 7-(4-fluorophenyl)-8-(3-methylimidazo[l,2-a]pyridin-6-yl)-2-((tetrahydrofuran-3-yl)methyl)-[1,2, 4]triazolo[1,5-c]pyrimidin-5-amine(isomer 2)] | – | – | – | 71.6 | 11.8
